US20060069132A1, “Azolecarboxamide herbicides” (priority 2004, published 2006)

How the values were obtained:
[1] = tested on: ducksalad; assay: Test B flooded paddy test; assay type: in vivo, Heteranthera limosa; conditions: 1000 g ai/ha, scale 0 to 100 (0 no effect, 100 complete control)
Procedure, shortened: (§1)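 Scale 0–100: zero equals no visible effect, 100 complete control, judged by eye relative to controls. Timing: 13 to 15 days in greenhouse post-treatment. Growth stage at spraying: two leaves (paddy) or one to four leaves, 2–18 cm (postemergence).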

[2] = tested on: lambsquarters; assay: Test B pre-/postemergence herbicide test; assay type: in vivo, Chenopodium album; conditions: for Lambsquarters plant response rating: postemergence
Procedure, shortened: (§2)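 Seeds were planted and treated preemergence with compounds formulated in a non-phytotoxic solvent mixture containing surfactant, while plants at the 1- to 4-leaf stage (2 to 18 cm) received postemergence sprays. Flooded paddy plants were grown to the 2-leaf stage. After 13 to 15 days in a greenhouse, injury was visually rated 0–100 against untreated controls.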

[3] = tested on: cocklebur; assay: Test B pre-/postemergence herbicide test; assay type: in vivo, Xanthium strumarium; conditions: for Cocklebur plant response rating: postemergence
Procedure, shortened: (§3)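 Formulation: non-phytotoxic solvent mix with surfactant. Timing: preemergence on seed and postemergence on 2–18 cm plants, applied concurrently. Readout after 13–15 d greenhouse: visual 0–100 control rating against controls.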

[4] = tested on: giant foxtail; assay: Test B pre-/postemergence herbicide test; assay type: in vivo, Setaria faberi; conditions: for Foxtail, Giant plant response rating: postemergence
Procedure, shortened: as §2

[5] = tested on: pigweed; assay: Test B pre-/postemergence herbicide test; assay type: in vivo, Amaranthus retroflexus; conditions: for Pigweed plant response rating: postemergence
Procedure, shortened: as §2

[6] = tested on: barnyardgrass; assay: Test B pre-/postemergence herbicide test; assay type: in vivo, Echinochloa crus-galli; conditions: for Barnyardgrass plant response rating: postemergence
Procedure, shortened: as §3

[7] = tested on: corn; assay: Test B pre-/postemergence herbicide test; assay type: in vivo, Zea mays; conditions: for Corn plant response rating: postemergence
Procedure, shortened: as §2

[8] = tested on: morningglory; assay: Test B pre-/postemergence herbicide test; assay type: in vivo, Ipomoea coccinea; conditions: for Morningglory plant response rating: postemergence
Procedure, shortened: as §3

[9] = tested on: wild oat; assay: Test B postemergence herbicide test; assay type: in vivo, Avena fatua; conditions: postemergence
Procedure, shortened: as §1

[10] = tested on: large crabgrass; assay: Test B pre-/postemergence herbicide test; assay type: in vivo, Digitaria sanguinalis; conditions: for Crabgrass, Large plant response rating: postemergence
Procedure, shortened: as §2

[11] = tested on: Surinam grass; assay: Test B pre-/postemergence herbicide test; assay type: in vivo, Urochloa decumbens; conditions: for Surinam Grass plant response rating: postemergence
Procedure, shortened: as §2

[12] = tested on: barnyardgrass; assay: Test B flooded paddy test; assay type: in vivo, Echinochloa crus-galli; conditions: 1000 g ai/ha, scale 0 to 100 (0 no effect, 100 complete control)
Procedure, shortened: as §1

[13] = tested on: small flower umbrella sedge; assay: Test B flooded paddy test; assay type: in vivo, Cyperus difformis; conditions: 1000 g ai/ha, scale 0 to 100 (0 no effect, 100 complete control)
Procedure, shortened: as §1

[14] = tested on: wheat; assay: Test B postemergence herbicide test; assay type: in vivo, Triticum aestivum; set-up: key to Wheat plant response rating: 0 = no effect, 100 = complete control; conditions: postemergence
Procedure, shortened: as §1

[15] = tested on: blackgrass; assay: Test B postemergence herbicide test; assay type: in vivo, Alopecurus myosuroides; conditions: postemergence
Procedure, shortened: as §1

[16] = tested on: rice; assay: Test B flooded paddy test; assay type: in vivo, Oryza sativa; conditions: 1000 g ai/ha, scale 0 to 100 (0 no effect, 100 complete control)
Procedure, shortened: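 Visual ratings, 0 (no effect) to 100 (complete control), made versus controls after 13–15 d greenhouse. Paddy plants treated at 2-leaf stage; postemergence plants at 1- to 4-leaf stage, 2–18 cm tall.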

[17] = 125 g ai/ha, 0 = no effect, 100 = complete control, preemergence
[18] = 125 g ai/ha, visual rating, scale 0 (no effect) to 100 (complete control)
[19] = 500 g ai/ha, visual rating, 0 = no effect, 100 = complete control, preemergence
[20] = 500 g ai/ha, scale 0 to 100, 0 is no effect, 100 is complete control

## CCc1nn(C(C)(C)C)cc1C(=O)Nc1cc(C(=O)N(C)C)ccn1 [Compound 293]
[1]
  Ducksalad plant response rating: 80
[2]; [17]
  Lambsquarters plant response rating (0 to 100 scale): 80
[2]; [18]
  Lambsquarters plant response rating: 50
[2]; [19]
  Plant response rating, Lambsquarters: 100
[2]; [20]
  Lambsquarters plant response rating: 70
[3]; [17]
  Cocklebur plant response rating (0 to 100 scale): 60
[3]; [18]
  Cocklebur plant response rating: 20
[3]; [19]
  Plant response rating, Cocklebur: 90
[3]; [20]
  Cocklebur plant response rating: 30
[4]; [17]
  Foxtail, Giant plant response rating (0 to 100 scale): 60
[4]; [18]
  Foxtail, Giant plant response rating: 20
[4]; [19]
  Plant response rating, Foxtail, Giant: 100
[4]; [20]
  Foxtail, Giant plant response rating: 30
[5]; [17]
  Pigweed plant response rating (0 to 100 scale): 10
[5]; [18]
  Pigweed plant response rating: 10
[5]; [19]
  Plant response rating, Pigweed: 100
[5]; [20]
  Pigweed plant response rating: 40
[6]; [17]
  Barnyardgrass plant response rating (0 to 100 scale): 90
[6]; [18]
  Barnyardgrass plant response rating: 0
[6]; [19]
  Plant response rating, Barnyardgrass: 100
[6]; [20]
  Barnyardgrass plant response rating: 10
[7]; [17]
  Corn plant response rating (0 to 100 scale): 70
[7]; [18]
  Corn plant response rating: 10
[7]; [19]
  Plant response rating, Corn: 100
[7]; [20]
  Corn plant response rating: 30
[8]; [17]
  Morningglory plant response rating (0 to 100 scale): 40
[8]; [18]
  Morningglory plant response rating: 30
[8]; [19]
  Plant response rating, Morningglory: 100
[8]; [20]
  Morningglory plant response rating: 70
[9]; [18]
  Oat, Wild plant response rating: 30
[9]; [20]
  Oat, Wild plant response rating: 50
[10]; [17]
  Crabgrass, Large plant response rating (0 to 100 scale): 100
[10]; [18]
  Crabgrass, Large plant response rating: 0
[10]; [19]
  Plant response rating, Crabgrass, Large: 100
[10]; [20]
  Crabgrass, Large plant response rating: 20
[11]; [17]
  Surinam Grass plant response rating (0 to 100 scale): 90
[11]; [18]
  Surinam Grass plant response rating: 10
[11]; [19]
  Plant response rating, Surinam Grass: 100
[11]; [20]
  Surinam Grass plant response rating: 20
[12]
  Barnyardgrass plant response rating: 90
[13]
  Sedge, Umbrella plant response rating: 80
[14]; [18]
  Wheat plant response rating: 20
[14]; [20]
  Wheat plant response rating: 30
[15]; [18]
  Blackgrass plant response rating: 30
[15]; [20]
  Blackgrass plant response rating: 30
[16]
  Rice plant response rating: 90
